Assay [1] deals with Mus musculus. Kind of assay: Antiinflammatory activity against carrageenan-induced paw edema in ICR mouse at 100 mg/kg, ip administered 30 mins before carrageenan challenge assessed after 0.5 hrs. The assay is classed as functional. To be noted: route intraperitoneal. A general note: The carrageenan paw model is a standard test of acute inflammation.
The subject of assay [2] is Mus musculus. As to the kind of experiment: Antiinflammatory activity against carrageenan-induced paw edema in ICR mouse at 50 mg/kg, ip administered 30 mins before carrageenan challenge assessed after 1 hr. The assay is classed as functional. To be noted: route intraperitoneal.
The test system of assay [3] is Mus musculus. Kind of assay: Antiinflammatory activity against carrageenan-induced paw edema in ICR mouse at 50 mg/kg, ip administered 30 mins before carrageenan challenge assessed after 3 hrs. In kind it is functional. The note with it: route intraperitoneal.
The subject of assay [4] is Mus musculus. Kind of assay: Antiinflammatory activity against carrageenan-induced paw edema in ICR mouse at 100 mg/kg, ip administered 30 mins before carrageenan challenge assessed after 2 hrs. In kind it is functional. The note with it: route intraperitoneal.
For assay [5], the system named is Mus musculus. Kind of assay: Antiinflammatory activity against carrageenan-induced paw edema in ICR mouse at 50 mg/kg, ip administered 30 mins before carrageenan challenge assessed after 2 hrs. The assay is classed as functional. The note with it: route intraperitoneal.
In assay [6] the test system is Mus musculus. Kind of assay: Antiinflammatory activity against carrageenan-induced paw edema in ICR mouse at 100 mg/kg, ip administered 30 mins before carrageenan challenge assessed after 4 hrs. In kind it is functional. To be noted: route intraperitoneal.
The subject of assay [7] is Mus musculus. As to the kind of experiment: Antiinflammatory activity against carrageenan-induced paw edema in ICR mouse at 100 mg/kg, ip administered 30 mins before carrageenan challenge assessed after 5 hrs. In kind it is functional. The note with it: route intraperitoneal.
The subject of assay [8] is Mus musculus. Kind of assay: Antiinflammatory activity against carrageenan-induced paw edema in ICR mouse at 50 mg/kg, ip administered 30 mins before carrageenan challenge assessed after 5 hrs. In kind it is functional. To be noted: route intraperitoneal.
For assay [9], the system named is Mus musculus. As to the kind of experiment: Antiinflammatory activity against carrageenan-induced paw edema in ICR mouse at 50 mg/kg, ip administered 30 mins before carrageenan challenge assessed after 4 hrs. In kind it is functional. The note with it: route intraperitoneal.
Assay [10] deals with Mus musculus. As to the kind of experiment: Antiinflammatory activity against carrageenan-induced paw edema in ICR mouse at 100 mg/kg, ip administered 30 mins before carrageenan challenge assessed after 3 hrs. In kind it is functional. The note with it: route intraperitoneal.
Assay [11] relates to Mus musculus. Kind of assay: Antiinflammatory activity against carrageenan-induced paw edema in ICR mouse at 100 mg/kg, ip administered 30 mins before carrageenan challenge assessed after 1 hr. The assay is classed as functional. The note with it: route intraperitoneal.
Assay [12] relates to Mus musculus. As to the kind of experiment: Antiinflammatory activity against carrageenan-induced paw edema in ICR mouse at 50 mg/kg, ip administered 30 mins before carrageenan challenge assessed after 0.5 hrs. In kind it is functional. The note with it: route intraperitoneal.
The subject of the next assay is RAW264.7. As to the kind of experiment: Inhibition of LPS-induced nitric oxide production in mouse RAW264.7 cells assessed as nitrite levels in supernatant after 24 hrs by griess assay. The assay is classed as functional, cell-based. For orientation: Griess reagent forms a coloured azo dye with nitrite.
Assay [13] has as its system Mus musculus. Kind of assay: Antiinflammatory activity against carrageenan-induced paw edema in ICR mouse at 4 mg/kg, ip administered 30 mins before carrageenan challenge assessed after 5 hrs. The note with it: route intraperitoneal. In kind it is functional.
Assay [14] relates to Mus musculus. Kind of assay: Antiinflammatory activity against carrageenan-induced paw edema in ICR mouse at 4 mg/kg, ip administered 30 mins before carrageenan challenge assessed after 4 hrs. To be noted: route intraperitoneal. The assay is classed as functional.
Assay [15] concerns Mus musculus. Kind of assay: Antiinflammatory activity against carrageenan-induced paw edema in ICR mouse at 4 mg/kg, ip administered 30 mins before carrageenan challenge assessed after 3 hrs. The assay is classed as functional. To be noted: route intraperitoneal.
The test system of assay [16] is Mus musculus. As to the kind of experiment: Antiinflammatory activity against carrageenan-induced paw edema in ICR mouse at 4 mg/kg, ip administered 30 mins before carrageenan challenge assessed after 2 hrs. The note with it: route intraperitoneal. The assay is classed as functional.
Assay [17] has as its system Mus musculus. Kind of assay: Antiinflammatory activity against carrageenan-induced paw edema in ICR mouse at 4 mg/kg, ip administered 30 mins before carrageenan challenge assessed after 0.5 hrs. The note with it: route intraperitoneal. The assay is classed as functional.
In assay [18] the test system is Mus musculus. As to the kind of experiment: Antiinflammatory activity against carrageenan-induced paw edema in ICR mouse at 4 mg/kg, ip administered 30 mins before carrageenan challenge assessed after 1 hr. The assay is classed as functional. To be noted: route intraperitoneal.

Consider `C[C@@]12CC=C3C(=O)O[C@@H](c4ccoc4)C[C@@]3(C)[C@@H]1CC=CC2=O` [FIBARURETIN D], for which the Activity is given as 17% in the assay with Mus musculus [1]; 24.17% in the assay with Mus musculus [2]; 21.55% in the assay on Mus musculus [3]; 22.79% in the assay with Mus musculus [4]; 25.18% in the assay with Mus musculus [5]; 23.67% with Mus musculus [6]. Besides, the Activity with Mus musculus [7] turned out to be 23.41%; in the assay on Mus musculus [8], 20.5%; in the assay on Mus musculus [9], 20.67%; in the assay with Mus musculus [10], 21.47%; with Mus musculus [11], 20.91%; with Mus musculus [12] it was 19.44%.

Take `C[C@@]12C[C@H](c3ccoc3)OC(=O)[C@@H]1CC[C@@]1(CO[C@@H]3O[C@H](CO)[C@@H](O)[C@H](O)[C@H]3O)C(=O)C=CC[C@H]12`: in the assay with RAW264.7, the Activity entry is “Dose-dependent effect”.

`C[C@@]12[C@H]3CC=C[C@@]1(O[C@@H]1O[C@H](CO)[C@@H](O)[C@H](O)[C@H]1O)C(=O)O[C@@H]2C[C@]1(O)C(=O)O[C@H](c2ccoc2)C[C@@]31C`: the Activity entry with RAW264.7 was “Dose-dependent effect”.

Turning to `C[C@@]12C[C@H](c3ccoc3)OC(=O)C1=CC[C@]1(C)[C@H]2[C@H]2C=C[C@]1(O)C(=O)O2` [FIBLEUCIN], the Activity turned out to be 14.56% in the assay with Mus musculus [1]; 13.12% in the assay with Mus musculus [2]; 21.61% in the assay with Mus musculus [3]; 20.68% with Mus musculus [4]; 17.97% with Mus musculus [5]; 26.19% in the assay with Mus musculus [6]. Further, the Activity with Mus musculus [7] stood at 26.02%; in the assay with Mus musculus [8], 25.6%; with Mus musculus [9] it was 25.29%; with Mus musculus [10], 24.44%; in the assay with Mus musculus [11], 17.79%; in the assay on Mus musculus [12], 11.8%.

In the case of `C[C@@]12C[C@H](c3ccoc3)OC(=O)C1=CC[C@]1(C)[C@H]2[C@H]2C=C[C@]1(O[C@@H]1O[C@H](CO)[C@@H](O)[C@H](O)[C@H]1O)C(=O)O2` [FIBLEUCINOSIDE], the Activity came to 14.91% in the assay on Mus musculus [1]; 18.8% with Mus musculus [2]; 22.82% in the assay with Mus musculus [3]; 19.82% with Mus musculus [4]; 24.26% in the assay on Mus musculus [5]; 22.01% in the assay on Mus musculus [6]. The Activity was found to be 20.11% in the assay with Mus musculus [7]; 23.88% in the assay with Mus musculus [8]; 24.01% with Mus musculus [9]; 21.31% in the assay with Mus musculus [10]; 19.05% in the assay with Mus musculus [11]; 15.64% in the assay with Mus musculus [12].

Turning to `C[C@@]12C[C@H](c3ccoc3)OC(=O)C1=CC[C@]1(C)[C@H]2[C@@H]2OC(=O)[C@@]1(O)[C@H]1O[C@@H]21` [FIBRAURIN], the Activity is 10.1% with Mus musculus [1]; 27.17% in the assay on Mus musculus [2]; 30.5% in the assay with Mus musculus [3]; 14% in the assay on Mus musculus [4]; 28.66% with Mus musculus [5]; 11.41% with Mus musculus [6]. The Activity is 10.61% in the assay with Mus musculus [7]; “Dose-dependent effect” in the assay on RAW264.7; 33.57% in the assay with Mus musculus [8]; 32.19% with Mus musculus [9]; 10.85% in the assay on Mus musculus [10]; 12.44% in the assay with Mus musculus [11]. This molecule returned an Activity with Mus musculus [12] of 19.68%.

As to `C[C@@]12C[C@H](c3ccoc3)OC(=O)[C@@H]1CC[C@]1(C)[C@H]2[C@@H]2OC(=O)[C@@]1(O)[C@H]1O[C@@H]21` [CHASMANTHIN], the Activity in the assay on Mus musculus [1] is recorded as 13.15%; in the assay on Mus musculus [2], 18.46%; in the assay with Mus musculus [3] it was 23.99%; in the assay with Mus musculus [4], 21.76%; in the assay with Mus musculus [5], 22.41%; in the assay on Mus musculus [6], 23.73%. The Activity with Mus musculus [7] is listed as 20.71%; in the assay on Mus musculus [8], 32.49%; in the assay on Mus musculus [9], 31.6%; in the assay with Mus musculus [10] it was 21.23%; in the assay with Mus musculus [11], 18.75%; in the assay with Mus musculus [12] it was 15.39%.

Regarding `C[C@@]12C[C@@H](c3ccoc3)OC(=O)[C@H]1CC[C@@H]1[C@H]2C[C@@H]2OC(=O)[C@@]1(O)[C@@H]2O` [FIBRAURETIN B], the Activity came out at 11.45% in the assay with Mus musculus [1]; 20.1% in the assay with Mus musculus [2]; 23.43% with Mus musculus [3]; 16.73% in the assay with Mus musculus [4]; 24.03% in the assay on Mus musculus [5]; 17.69% in the assay with Mus musculus [6]. Also, the Activity in the assay with Mus musculus [7] was 18.16%; in the assay with Mus musculus [8] it was 28.34%; in the assay with Mus musculus [9], 26.73%; with Mus musculus [10], 15.21%; in the assay with Mus musculus [11] it was 19.17%; in the assay on Mus musculus [12], 14%.

For `COc1ccc2c(c1)c(CC(=O)O)c(C)n2C(=O)c1ccc(Cl)cc1` [INDOMETHACIN], the Activity is recorded as 16.3% with Mus musculus [13]; 17.04% in the assay on Mus musculus [14]; 18.52% with Mus musculus [15]; 19.53% with Mus musculus [16]; 20.77% in the assay with Mus musculus [17]; 21.48% with Mus musculus [18].

For `COC(=O)C1=CCC[C@H]2[C@]3(C)C[C@@H](c4ccoc4)OC(=O)[C@H]3CC[C@@]12C` [FLORIBUNDIC ESTER], the Activity with Mus musculus [1] came to 13.07%; in the assay with Mus musculus [2], 20.95%; in the assay with Mus musculus [3], 21.84%; with Mus musculus [4] it was 16.78%; in the assay on Mus musculus [5], 21.51%; in the assay on Mus musculus [6], 14.9%. For the same molecule, the Activity is 13.07% with Mus musculus [7]; 20.18% in the assay with Mus musculus [8]; 21.85% in the assay on Mus musculus [9]; 13.95% with Mus musculus [10]; 15.46% in the assay with Mus musculus [11]; 16.27% in the assay on Mus musculus [12].

With `C[C@@]12C[C@H](c3ccoc3)OC(=O)[C@@H]1[C@@H](O)C[C@]1(C)[C@H]2[C@@H]2OC(=O)[C@@]1(O)[C@H]1O[C@@H]21`, in the assay with RAW264.7, the Activity entry is “Dose-dependent effect”.

For the molecule `C[C@@]12C[C@H](c3ccoc3)OC(=O)C1=CC[C@]1(C)[C@H]2[C@@H]2OC(=O)[C@@]1(O[C@@H]1O[C@H](CO)[C@@H](O)[C@H](O)[C@H]1O)[C@H]1O[C@@H]21` [FIBRAURINOSIDE], the Activity with Mus musculus [1] is given as 18.67%; in the assay with Mus musculus [2] it was 18.18%; with Mus musculus [3], 20.36%; in the assay with Mus musculus [4], 25.07%; in the assay on Mus musculus [5], 18.99%; in the assay on Mus musculus [6] it was 25.25%. The Activity in the assay with Mus musculus [7] was 24.8%; with RAW264.7, “Dose-dependent effect”; in the assay on Mus musculus [8], 18.48%; in the assay with Mus musculus [9], 20.89%; in the assay on Mus musculus [10], 25.03%; with Mus musculus [11], 23.03%. The Activity with Mus musculus [12] is 17.12%.

Values taken from ChEMBL document CHEMBL1142486, “Anti-inflammatory activities of furanoditerpenoids and other constituents from Fibraurea tinctoria” (2008).
